Experimental data reported in patent US20080249141A1, “Co-therapy with and combinations of statins and 1,4-dihydropyridine-3,5-dicarboxydiesters” (priority 2007, published 2008).

Details: patient

Row | Structure (SMILES) | therapeutic effect (20 mg once a day, co-administered 10 mg amlodipine once daily) | therapeutic effectiveness after change from crystalline atorvastatin calcium (20 mg once daily with 10 mg amlodipine)
1 | CC(C)c1c(C(=O)Nc2ccccc2)c(-c2ccccc2)c(-c2ccc(F)cc2)n1CC[C@@H](O)C[C@@H](O)CC(=O)[O-].CC(C)c1c(C(=O)Nc2ccccc2)c(-c2ccccc2)c(-c2ccc(F)cc2)n1CC[C@@H](O)C[C@@H](O)CC(=O)[O-].[Ca+2] [crystalline atorvastatin calcium] | good therapeutic effect | 
2 | CC(C)c1c(C(=O)Nc2ccccc2)c(-c2ccccc2)c(-c2ccc(F)cc2)n1CC[C@@H](O)C[C@@H](O)CC(=O)[O-].CC(C)c1c(C(=O)Nc2ccccc2)c(-c2ccccc2)c(-c2ccc(F)cc2)n1CC[C@@H](O)C[C@@H](O)CC(=O)[O-].[Ca+2] [amorphous atorvastatin calcium] |  | without change in the therapeutic effectiveness
